Structures can show the parent of a compound that is named as a salt. Where two headings read alike, the source gives them in different places.
Assays:
Assay in all cases: biochemical
recombinant human MMP-1 = biological target: T1, recombinant human MMP-1 (Homo sapiens, UniProt P03956); conditions: read-out: MMP-1 IC50
T1 construct: made in house; host or cells: transfected HT-1080 cells (provided by Dr. Harold Welgus, Washington University)
T1 sequence (P03956 100-469): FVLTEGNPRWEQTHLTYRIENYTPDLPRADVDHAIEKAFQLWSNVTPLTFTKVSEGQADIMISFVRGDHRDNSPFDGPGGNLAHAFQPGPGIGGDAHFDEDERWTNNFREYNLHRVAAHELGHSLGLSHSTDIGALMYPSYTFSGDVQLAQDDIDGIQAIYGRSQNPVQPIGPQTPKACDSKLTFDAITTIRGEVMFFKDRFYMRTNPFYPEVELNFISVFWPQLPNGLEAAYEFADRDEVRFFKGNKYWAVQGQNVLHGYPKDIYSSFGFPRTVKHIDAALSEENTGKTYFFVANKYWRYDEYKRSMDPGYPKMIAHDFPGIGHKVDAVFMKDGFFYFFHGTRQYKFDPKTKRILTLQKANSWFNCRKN

recombinant human MMP-13 = recombinant human MMP-13 (Homo sapiens, UniProt P45452); conditions: Inhibition Table B; read-out: MMP-13 IC50
recombinant human MMP-2 = biological target: T2, recombinant human MMP-2 (Homo sapiens, UniProt P08253); conditions: Inhibition Table B; read-out: MMP-2 IC50
T2 sequence (P08253 110-660): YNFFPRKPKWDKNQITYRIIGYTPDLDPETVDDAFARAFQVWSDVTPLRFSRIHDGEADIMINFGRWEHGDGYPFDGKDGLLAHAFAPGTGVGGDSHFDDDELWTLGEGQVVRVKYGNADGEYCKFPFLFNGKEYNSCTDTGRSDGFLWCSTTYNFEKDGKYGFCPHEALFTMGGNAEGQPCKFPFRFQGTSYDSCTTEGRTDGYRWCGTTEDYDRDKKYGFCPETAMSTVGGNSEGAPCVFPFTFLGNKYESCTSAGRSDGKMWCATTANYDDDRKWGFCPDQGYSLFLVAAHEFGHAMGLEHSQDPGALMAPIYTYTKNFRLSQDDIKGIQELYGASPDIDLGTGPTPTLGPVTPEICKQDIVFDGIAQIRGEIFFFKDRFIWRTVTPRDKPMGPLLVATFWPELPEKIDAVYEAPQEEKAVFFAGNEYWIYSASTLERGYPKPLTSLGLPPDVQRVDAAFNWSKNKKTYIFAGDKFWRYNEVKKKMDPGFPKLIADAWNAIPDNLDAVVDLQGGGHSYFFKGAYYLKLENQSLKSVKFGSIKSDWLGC

Work on `O=C(NO)C1(S(=O)(=O)c2ccc(Oc3ccc(I)cc3)cc2)CCOCC1` [Example 57, Tetrahydro-N-hydroxy-4-[[4-(4-iodophenoxy)phenyl]sulfonyl]-2H-pyran-4-carboxamide] yielded an IC50 (recombinant human MMP-1; Inhibition Table B) of 1200 nM, an IC50 (recombinant human MMP-13) of 0.2 nM and an IC50 (recombinant human MMP-2) of less than 0.1 nM.
Molecule `O=C(NO)C1(S(=O)(=O)c2ccc(Oc3cc(F)c(F)cc3F)cc2)CCOCC1` [Example 58, Tetrahydro-N-hydroxy-4-[[4-(2,4,5-trifluorophenoxy)phenyl]-sulfonyl]-2H-pyran-4-carboxamide] has an IC50 (recombinant human MMP-1; Inhibition Table B) greater than 10000 nM, an IC50 (recombinant human MMP-13) of 30 nM and an IC50 (recombinant human MMP-2) of 83 nM.
`O=C(NO)C1(S(=O)(=O)c2ccc(Sc3ccc(Cl)c(Cl)c3)cc2)CCOCC1` [Example 60] showed an IC50 (recombinant human MMP-1; Inhibition Table B) greater than 10000 nM, an IC50 (recombinant human MMP-13) of 147 nM and an IC50 (recombinant human MMP-2) of 64 nM.
Molecule `Nc1cc(C(F)(F)F)ccc1Sc1ccc(S(=O)(=O)C2(C(=O)NO)CCOCC2)cc1` [Example 61, 4—[[4-[[2-amino-4-(trifluoromethyl)phenyl]thio]phenyl]-sulfonyl]-tetrahydro-N-hydroxy-2H-pyran-4-carboxamide, Monohydrochloride] has an IC50 (recombinant human MMP-1; Inhibition Table B) greater than 10000 nM, an IC50 (recombinant human MMP-13) of 2000 nM and an IC50 (recombinant human MMP-2) of 1500 nM.
`COc1ccc(Oc2ccc(S(=O)(=O)C3(C(=O)NO)CCOCC3)cc2)cc1` [Example 64] was tested, and the IC50 (recombinant human MMP-1; Inhibition Table B) was 1470 nM, the IC50 (recombinant human MMP-13) was 0.15 nM and the IC50 (recombinant human MMP-2) was less than 0.1 nM.
With `O=C(NO)C1(S(=O)(=O)c2ccc(F)cc2)CCOCC1` [Example 66, 4-[(4-fluorophenyl)-sulfonyl]tetrahydro-N-hydroxy-2H-pyran-4-carboxamide] the IC50 (recombinant human MMP-1; Inhibition Table B) was greater than 10000 nM, the IC50 (recombinant human MMP-13) was 36000 nM and the IC50 (recombinant human MMP-2) was 4590 nM.
Work on `O=C(NO)C1(S(=O)(=O)c2ccc(OC3CCNCC3)cc2)CCOCC1` [Example 67, tetrahydro-N-hydroxy-4-[[4-(4-piperidinyloxy)phenyllsulfonyl]-2H-pyran-4-carboxamide, Monohydrochloride] yielded an IC50 (recombinant human MMP-1; Inhibition Table B) of 1600 nM, an IC50 (recombinant human MMP-13) of 268 nM and an IC50 (recombinant human MMP-2) of 239 nM.
For `O=C(NO)C1(S(=O)(=O)c2ccc(Oc3ccc(OCc4ccccc4)cc3)cc2)CCOCC1` [Example 72, tetrahydro-N-hydroxy-4-[[4-[4-[(phenylmethyl)oxy]phenoxy]-phenyl]-sulfonyl]-2H-pyran-4-carboxamide], the IC50 (recombinant human MMP-1; Inhibition Table B) was 2100 nM, the IC50 (recombinant human MMP-13) was 0.3 nM and the IC50 (recombinant human MMP-2) was less than 0.1 nM.
`O=C(CS(=O)(=O)c1ccc(NC(=O)OCc2ccccc2)cc1)NO` [Example 74, phenylmethyl-[4-[[2-(hydroxyamino)-2-oxoethyl]-sulfonyl]-phenyl]carbamate] gave an IC50 (recombinant human MMP-1; Inhibition Table B) greater than 10000 nM, an IC50 (recombinant human MMP-13) of 480 nM and an IC50 (recombinant human MMP-2) of 130 nM.
Work on `O=C(CS(=O)(=O)c1ccc(NC(=O)Nc2ccccc2)cc1)NO` [Example 75, N—hydroxy-2-[[4-[[(phenylamino)carbonyl]amino]-phenyl]sulfonyl]acetamide] yielded an IC50 (recombinant human MMP-1; Inhibition Table B) greater than 10000 nM, an IC50 (recombinant human MMP-13) of 900 nM and an IC50 (recombinant human MMP-2) of 60 nM.
`C=CCN1CCC(C(=O)NO)(S(=O)(=O)c2ccc(Oc3ccc(Cl)c(C)c3)cc2)CC1` [Example 82, 4-[[4-(4-chloro-3-methylphenoxy)phenyljsulfonyl]-N-hydroxy-1-(2-propenyl)-4-piperidinecarboxamide, Monohydrochloride] showed an IC50 (recombinant human MMP-1; Inhibition Table B) of 4000 nM, an IC50 (recombinant human MMP-13) of 0.3 nM and an IC50 (recombinant human MMP-2) of 0.1 nM.
`O=C(NO)C1(S(=O)(=O)c2ccc(Oc3ccc(F)c(Cl)c3)cc2)CCNCC1` [Example 84, 4-[[4-(3-chloro-4-fluorophenoxy)phenyl]sulfonyl]-N-hydroxy-4-piperidine Carboxamide, Monohydrochloride] gave an IC50 (recombinant human MMP-1; Inhibition Table B) of 8000 nM, an IC50 (recombinant human MMP-13) of 2.5 nM and an IC50 (recombinant human MMP-2) of 1.8 nM.
`O=C(NO)C1(S(=O)(=O)c2ccc(Sc3ccccc3)cc2)CCNCC1` [Example 86, 4-[[4-(phenylthio)-phenyl]-sulfonyl]-N-hydroxy-4-piperidine-carboxamide, Monohydrochloride] gave an IC50 (recombinant human MMP-1; Inhibition Table B) greater than 10000 nM, an IC50 (recombinant human MMP-13) of 3.5 nM and an IC50 (recombinant human MMP-2) of 2.5 nM.
Work on `CC(C)NC(=O)N1CCC(C(=O)NO)(S(=O)(=O)c2ccc(Oc3ccc(Cl)cc3)cc2)CC1` [Example 90, 4-[[4-(4-chlorophenoxy)-phenyl]sulfonyl]-N^4-hydroxy-N^1-(1-methylethyl)-1,4-piperidine Dicarboxamide] yielded an IC50 (recombinant human MMP-1; Inhibition Table B) of 1200 nM, an IC50 (recombinant human MMP-13) of 0.1 nM and an IC50 (recombinant human MMP-2) of 0.1 nM.
`CN(c1ccccc1)c1ccc(S(=O)(=O)C2(C(=O)NO)CCNCC2)cc1` [Example 92, N-hydroxy-4-[[4-(methylphenylamino)phenyl]sulfonyl]-4-piperidinecarboxamide, Monohydrochloride] showed an IC50 (recombinant human MMP-1; Inhibition Table B) greater than 10000 nM, an IC50 (recombinant human MMP-13) of 2430 nM and an IC50 (recombinant human MMP-2) of 1800 nM.
`Cc1ccc(Oc2ccc(S(=O)(=O)C3(C(=O)NO)CCOCC3)cc2)cn1` [Example 97, Tetrahydro-N-hydroxy-4-[[4-[(6-methyl-3-pyridinyl)oxy]phenyl]-sulfonyl]-2H-pyran-4-carboxamide, Monohydrochloride] showed an IC50 (recombinant human MMP-1; Inhibition Table B) of 4000 nM, an IC50 (recombinant human MMP-13) of 16.7 nM and an IC50 (recombinant human MMP-2) of 8.2 nM.
With `Cc1cccc(Oc2ccc(S(=O)(=O)C3(C(=O)NO)CCOCC3)cc2)n1` [Example 98, Tetrahydro-N-hydroxy-4-[[4-[(6-methyl-2—pyridinyl)oxy]phenyl]-sulfonyl]-2H-pyran-4-carboxamide] the IC50 (recombinant human MMP-1; Inhibition Table B) was greater than 10000 nM, the IC50 (recombinant human MMP-13) was 23.4 nM and the IC50 (recombinant human MMP-2) was 37 nM.
`COC(=O)CCc1ccc(Oc2ccc(S(=O)(=O)C3(C(=O)NO)CCOCC3)cc2)cc1` [Example 102, methyl 4-[4-[(tetrahydro-4-[(hydroxyamino)carbonyl]-2H-pyran-4-yl]sulfonyl]-phenoxy]benzenepropanoate] showed an IC50 (recombinant human MMP-1; Inhibition Table B) of 2000 nM, an IC50 (recombinant human MMP-13) of 0.2 nM and an IC50 (recombinant human MMP-2) of less than 0.1 nM.
With `C#CCN1CCC(Oc2ccc(S(=O)(=O)C3(C(=O)NO)CCOCC3)cc2)CC1` [Example 106, Tetrahydro-N-hydroxy-4-[[4-[[1-(2-propynyl)-4-piperidinyl]-oxy]phenyl]sulfonyl]-2H-pyran-4-carboxamide, Monohydrochloride] the IC50 (recombinant human MMP-1; Inhibition Table B) was greater than 10000 nM, the IC50 (recombinant human MMP-13) was 12.1 nM and the IC50 (recombinant human MMP-2) was 27.1 nM.
For `CC(=O)N1CCC(Oc2ccc(S(=O)(=O)C3(C(=O)NO)CCOCC3)cc2)CC1` [Example 107, 4-[[4-[(1-acetyl-4-piperidinyl)oxy]phenyl]-sulfonyl]tetrahydro-N-hydroxy-2H-pyran-4-carboxamide], the IC50 (recombinant human MMP-1; Inhibition Table B) was greater than 10000 nM, the IC50 (recombinant human MMP-13) was 6 nM and the IC50 (recombinant human MMP-2) was 12.1 nM.
`O=C(NO)C1(S(=O)(=O)c2ccc(Oc3ccc(F)c(Cl)c3)cc2)CCOCC1` [Example 108, 4-[[4-(3-chloro-4-fluorophenoxy)phenyl]sulfonyl]-tetrahydro-N-hydroxy-2H-pyran-4-carboxamide] was tested, and the IC50 (recombinant human MMP-1; Inhibition Table B) was 2000 nM, the IC50 (recombinant human MMP-13) was 0.4 nM and the IC50 (recombinant human MMP-2) was 0.4 nM.
`CC(=O)N1CCN(c2ccc(Oc3ccc(S(=O)(=O)C4(C(=O)NO)CCSCC4)cc3)cc2)CC1` [Example 112] was tested, and the IC50 (recombinant human MMP-1; Inhibition Table B) was 1000 nM, the IC50 (recombinant human MMP-13) was 3.2 nM and the IC50 (recombinant human MMP-2) was 7 nM.
Work on `O=C(NO)C1(S(=O)(=O)c2ccc(Sc3ccccc3)cc2)CC[S+]([O-])CC1` (stereo not drawn) [Example 113] yielded an IC50 (recombinant human MMP-1; Inhibition Table B) greater than 10000 nM, an IC50 (recombinant human MMP-13) of 4 nM and an IC50 (recombinant human MMP-2) of 0.9 nM.
In the case of `Nc1ccc(Sc2ccc(S(=O)(=O)C3(C(=O)NO)CCOCC3)cc2)cc1` [Example 120, 4-[[4-[(4-aminophenyl)thio]phenyl]-sulfonyl]tetrahydro-N-hydroxy-2H-pyran-4-carboxamide], the IC50 (recombinant human MMP-1; Inhibition Table B) is reported as 4000 nM, the IC50 (recombinant human MMP-13) is reported as 0.4 nM and the IC50 (recombinant human MMP-2) is reported as 0.4 nM.
`Cc1nc2cc(Oc3ccc(S(=O)(=O)C4(C(=O)NO)CCOCC4)cc3)ccc2s1` [Example 121, tetrahydro-N-hydroxy-4-[[4-[(2-methyl-5-benzothiazolyl)-oxy]phenyl]sulfonyl]-2H-pyran-4-carboxamide] showed an IC50 (recombinant human MMP-1; Inhibition Table B) of 1200 nM, an IC50 (recombinant human MMP-13) of 0.2 nM and an IC50 (recombinant human MMP-2) of less than 0.1 nM.
In the case of `O=C(NO)C1(S(=O)(=O)c2ccc(Oc3ccc(Cl)c(F)c3)cc2)CCOCC1` [Example 122, 4-[[4-(4-chloro-3-fluorophenoxy)phenyl]sulfonyl]-tetrahydro-N-hydroxy-2H-pyran-4-carboxamide], the IC50 (recombinant human MMP-1; Inhibition Table B) is reported as 600 nM, the IC50 (recombinant human MMP-13) is reported as 0.15 nM and the IC50 (recombinant human MMP-2) is reported as 0.1 nM.
`CCOC(=O)N1CCN(c2ccc(S(=O)(=O)C3(C(=O)NO)CCOCC3)cc2)CC1` [Example 126] was tested, and the IC50 (recombinant human MMP-1; Inhibition Table B) was 8000 nM, the IC50 (recombinant human MMP-13) was 10 nM and the IC50 (recombinant human MMP-2) was 11.3 nM.
For `O=C(NO)C1(S(=O)(=O)c2ccc(N3CCN(CCO)CC3)cc2)CCOCC1` [Example 127], the IC50 (recombinant human MMP-1) was greater than 10000 nM, the IC50 (recombinant human MMP-13) was 40 nM and the IC50 (recombinant human MMP-2) was 37 nM.
Molecule `COc1ccccc1N1CCN(c2ccc(S(=O)(=O)C3(C(=O)NO)CCOCC3)cc2)CC1` [Example 128] has an IC50 (recombinant human MMP-1; Inhibition Table B) greater than 10000 nM, an IC50 (recombinant human MMP-13) of 20 nM and an IC50 (recombinant human MMP-2) of 23.8 nM.
With `O=C(NCC(F)(F)F)C1CCN(c2ccc(S(=O)(=O)C3(C(=O)NO)CCOCC3)cc2)CC1` [Example 180] the IC50 (recombinant human MMP-1; Inhibition Table B) was 5000 nM, the IC50 (recombinant human MMP-13) was 4 nM and the IC50 (recombinant human MMP-2) was 128 nM.

Reference: patent US20010039287A1, “AROMATIC SULFONE HYDROXAMIC ACID METALLOPROTEASE INHIBITOR” (priority 1997, published 2001)
